Results as given in patent publication EP0745595A1, “3-(3-Aryloxyphenyl)-1-(substituted methyl)-s-triazine-2,4,6-oxo or thiotrione herbicidal agents” (American Cyanamid Company, priority 1995, dated 1996).

Experiments:
Assay type in all cases: in vivo
CHENOPODIUM ALBUM, L. [1] = assay: Preemergence herbicidal evaluation, CHEAL (Lambsquarters, Common); details: for CHEAL rating: four to five weeks after treatment
Summary of the method: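 Greenhouse preemergence test; treated soil cups received compound in aqueous acetone (about 0.125 to 0.50 kg/ha) right after sowing and were assessed visually 4-5 weeks later on a 0-9 scale compared with control plants.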

CASSIA OBTUSIFOLIA, L. = assay: Postemergence herbicidal evaluation, CASOB (Sicklepod); set-up: key to CASOB rating / Herbicidal effect rating, CASOB / CASOB: 0-9 visual rating scale vs untreated control
Summary of the method: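 Ratings (0-9) reflect visual stand, vigor, malformation, size and chlorosis compared with untreated plants, assessed 4-5 weeks after postemergence spraying. Treatment was applied to roughly two-week-old seedlings at about 0.125-0.500 kg/ha in acetone/water with 0.5% Tween 20; replicate tests were averaged.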

IPOMOEA SPP. = assay: Postemergence herbicidal evaluation, IPOSS (Morningglory spp.)
Summary of the method: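 In this greenhouse postemergence herbicide test on Ipomoea spp. (morningglory), compounds in 50/50 acetone/water with 0.5% TWEEN®20 were sprayed at 40 psi onto seedlings about two weeks old grown in jiffy flats. After four to five weeks, injury was scored on a 0-9 scale covering stand, vigor, malformation, size, chlorosis and overall appearance versus control, with repeat tests averaged.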

[2] = tested on: ECHINOCHLOA CRUS-GALLI, (L) BEAU; assay: Postemergence herbicidal evaluation, ECHCG (Barnyardgrass); set-up: key to ECHCG rating / Herbicidal effect rating, ECHCG / ECHCG: 0-9 visual rating scale vs untreated control
Summary of the method: (§1)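 Each value is a 0–9 visual rating of plant appearance compared with control, recorded 4–5 weeks after a 0.125–0.500 kg/ha spray, with multiple tests averaged.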

[3] = tested on: ORYZA SATIVA, L. TEBONNET; assay: Rice tolerance to post-transplant applications under flooded paddy conditions, ORYSAT (Rice, Tebonnet); details: for ORYSAT herbicidal rating (rice tolerance): rated three to four weeks after treatment; for ORYSAT: post-transplanted rice;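 as to ORYSAT herbicidal rating (rice tolerance): applied to flooded soil surface three days after transplanting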
Summary of the method: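 Greenhouse pots of silt loam, each with two transplanted ten-day-old seedlings, are held under 1.5 to 3 cm of standing water. Three days later the compound is applied to the flooded surface at about 0.5, 0.25, 0.125 or 0.063 kg/ha. Damage is scored visually 0-9 after 3-4 weeks.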

[4] = tested on: TRITICUM AESTIVUM, CV. APOLLO; assay: Postemergence herbicidal evaluation, TRZAWO (Wheat, Winter, CV. APOLLO)
Summary of the method: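 This greenhouse postemergence test applied compounds to roughly two-week-old wheat seedlings grown in jiffy flats. The spray solution was 50/50 acetone/water with 0.5% TWEEN®20, a polyoxyethylene sorbitan monolaurate, sprayed from a nozzle run at 40 psi. After four to five weeks of standard greenhouse care, injury was scored from 0 to 9 by comparing stand, vigor, malformation, size, chlorosis and overall appearance with a control. Multiple tests were averaged.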

ZEA MAYS L. = assay: Postemergence herbicidal evaluation, ZEAMX (Corn, Field)
Summary of the method: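 This greenhouse postemergence test treated corn plants about two weeks old. Compounds in a 50/50 acetone/water mixture with 0.5% TWEEN®20 were applied through a spray nozzle at 40 psi. After four to five weeks, injury was scored 0-9 against an untreated control, judging stand, vigor, malformation, size, chlorosis and overall appearance. Repeated tests were averaged.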

[5] = tested on: ABUTILON THEOPHRASTI, MEDIC.; assay: Postemergence herbicidal evaluation, ABUTH (Velvetleaf)
Summary of the method: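 This postemergence herbicide test used two-week-old velvetleaf seedlings grown in jiffy flats. Each compound was sprayed at 40 psi as a dispersion in 50/50 acetone/water with 0.5% TWEEN®20 surfactant. Plants then received routine greenhouse care. After four to five weeks, injury was scored visually on a 0-9 scale against a control, and replicate tests were averaged.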

[6] = tested on: AMBROSIA ARTEMISIIFOLIA, L.; assay: Postemergence herbicidal evaluation, AMBEL (Ragweed, Common)
Summary of the method: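 Postemergence herbicidal activity on AMBEL (common ragweed) was assessed on two-week-old seedlings grown in jiffy flats. Treatment solutions of 50/50 acetone/water with 0.5% TWEEN®20 surfactant were sprayed at 40 psi. After four to five weeks in the greenhouse, plants were scored 0-9 against a control for stand, vigor, malformation, size, chlorosis and overall appearance, with multiple tests averaged.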

[7] = tested on: SETARIA VIRIDIS, (L) BEAU; assay: Postemergence herbicidal evaluation, SETVI (Foxtail, Green); set-up: key to SETVI rating / Herbicidal effect rating, SETVI / SETVI: 0-9 visual rating scale vs untreated control
Summary of the method: as §1

CHENOPODIUM ALBUM, L. [8] = assay: Postemergence herbicidal evaluation, CHEAL (Lambsquarters, Common)
Summary of the method: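 Postemergence herbicidal activity on Chenopodium album was tested by spraying two-week-old seedlings grown in jiffy flats with compound in acetone/water (50/50) plus 0.5% TWEEN®20, using a 40 psi nozzle. Four to five weeks after treatment, stand, vigor, malformation, size, chlorosis and overall appearance were scored 0-9 relative to controls, with repeat tests averaged.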

COC(=O)Cn1c(=O)n(C)c(=O)n(-c2cc(Oc3ccc(C(F)(F)F)cc3Cl)ccc2[N+](=O)[O-])c1=O [Compound 3, Methyl 3-{5-[(2-chloro-α,α,α-trifluoro-p-tolyl)oxy]-2-nitrophenyl}tetrahydro-5-methyl-2,4,6-trioxo-s-triazine-1(2H)-acetate]
CHEAL rating (CHENOPODIUM ALBUM, L. [1]; Rate 0.125 kg/ha): 9.0
CHEAL rating (CHENOPODIUM ALBUM, L. [1]; Rate 0.250 kg/ha): 9.0
CHEAL rating (CHENOPODIUM ALBUM, L. [1]; Rate 0.500 kg/ha): 9.0
Herbicidal effect rating, CASOB (CASSIA OBTUSIFOLIA, L.; 0.031 kg/ha): 7.7
Herbicidal effect rating, CASOB (CASSIA OBTUSIFOLIA, L.; 0.063 kg/ha): 8.4
Herbicidal effect rating, CASOB (CASSIA OBTUSIFOLIA, L.; 0.125 kg/ha): 8.8
Herbicidal effect rating, CASOB (CASSIA OBTUSIFOLIA, L.; 0.250 kg/ha): 8.4
Herbicidal effect rating, IPOSS (IPOMOEA SPP.; 0.031 kg/ha): 7.6
Herbicidal effect rating, IPOSS (IPOMOEA SPP.; 0.063 kg/ha): 8.3
Herbicidal effect rating, IPOSS (IPOMOEA SPP.; 0.125 kg/ha): 8.9
Herbicidal effect rating, IPOSS (IPOMOEA SPP.; 0.250 kg/ha): 8.9
Herbicidal effect rating, ECHCG ([2]; 0.031 kg/ha): 4.3
Herbicidal effect rating, ECHCG ([2]; 0.063 kg/ha): 5.1
Herbicidal effect rating, ECHCG ([2]; 0.125 kg/ha): 6.7
Herbicidal effect rating, ECHCG ([2]; 0.250 kg/ha): 7.9
ORYSAT herbicidal rating (rice tolerance) ([3]; post-transplant rice, Rate 0.063 kg/ha): 2.7
ORYSAT herbicidal rating (rice tolerance) ([3]; post-transplant rice, Rate 0.125 kg/ha): 3.0
ORYSAT herbicidal rating (rice tolerance) ([3]; post-transplant rice, Rate 0.250 kg/ha): 3.8
ORYSAT herbicidal rating (rice tolerance) ([3]; post-transplant rice, Rate 0.500 kg/ha): 4.0
ORYSAT ([3]; Rate 0.031 kg/ha): 1.0
ORYSAT ([3]; Rate 0.063 kg/ha): 2.7
ORYSAT ([3]; Rate 0.125 kg/ha): 3.0
ORYSAT ([3]; Rate 0.250 kg/ha): 3.8
Herbicidal effect rating, TRZAWO ([4]; 0.031 kg/ha): 6.1
Herbicidal effect rating, TRZAWO ([4]; 0.063 kg/ha): 6.8
Herbicidal effect rating, TRZAWO ([4]; 0.125 kg/ha): 7.1
Herbicidal effect rating, TRZAWO ([4]; 0.250 kg/ha): 7.6
Herbicidal effect rating, ZEAMX (ZEA MAYS L.; 0.031 kg/ha): 4.6
Herbicidal effect rating, ZEAMX (ZEA MAYS L.; 0.063 kg/ha): 4.8
Herbicidal effect rating, ZEAMX (ZEA MAYS L.; 0.125 kg/ha): 5.8
Herbicidal effect rating, ZEAMX (ZEA MAYS L.; 0.250 kg/ha): 6.9
Herbicidal effect rating, ABUTH ([5]; 0.031 kg/ha): 7.3
Herbicidal effect rating, ABUTH ([5]; 0.063 kg/ha): 8.1
Herbicidal effect rating, ABUTH ([5]; 0.125 kg/ha): 8.8
Herbicidal effect rating, ABUTH ([5]; 0.250 kg/ha): 8.9
Herbicidal effect rating, AMBEL ([6]; 0.031 kg/ha): 8.3
Herbicidal effect rating, AMBEL ([6]; 0.063 kg/ha): 8.6
Herbicidal effect rating, AMBEL ([6]; 0.125 kg/ha): 8.8
Herbicidal effect rating, AMBEL ([6]; 0.250 kg/ha): 9.0
Herbicidal effect rating, SETVI ([7]; 0.031 kg/ha): 3.9
Herbicidal effect rating, SETVI ([7]; 0.063 kg/ha): 5.1
Herbicidal effect rating, SETVI ([7]; 0.125 kg/ha): 6.8
Herbicidal effect rating, SETVI ([7]; 0.250 kg/ha): 7.9
Herbicidal effect rating, CHEAL (CHENOPODIUM ALBUM, L. [8]; 0.031 kg/ha): 5.1
Herbicidal effect rating, CHEAL (CHENOPODIUM ALBUM, L. [8]; 0.063 kg/ha): 6.0
Herbicidal effect rating, CHEAL (CHENOPODIUM ALBUM, L. [8]; 0.125 kg/ha): 7.2
Herbicidal effect rating, CHEAL (CHENOPODIUM ALBUM, L. [8]; 0.250 kg/ha): 7.4

COC(=O)Cn1c(=O)n(C)c(=O)n(-c2cc(Oc3ccccn3)ccc2[N+](=O)[O-])c1=O [Compound 38, Methyl tetrahydro-3-methyl-5-[2-nitro-5-(2-pyridyloxy)phenyl]-2,4,6-trioxo-s-triazine-1(2H)-acetate]
CHEAL herbicidal rating (CHENOPODIUM ALBUM, L. [1]; Rate 0.500 kg/ha, rated four to five weeks after treatment): 0.0
CASOB rating (CASSIA OBTUSIFOLIA, L.; Rate 0.500 kg/ha): 0.0
IPOSS rating (IPOMOEA SPP.; Rate 0.500 kg/ha): 0.0
ECHCG rating ([2]; Rate 0.500 kg/ha): 0.0
Herbicidal effect rating, ORYSAT ([3]; 0.500 kg/ha, post-transplant rice, 3-4 weeks after treatment): 0.0
TRZAWO rating ([4]; Rate 0.500 kg/ha): 0.0
ZEAMX rating (ZEA MAYS L.; Rate 0.500 kg/ha): 0.0
ABUTH rating ([5]; Rate 0.500 kg/ha): 0.0
AMBEL rating ([6]; Rate 0.500 kg/ha): 0.0
SETVI rating ([7]; Rate 0.500 kg/ha): 0.0
CHEAL rating (CHENOPODIUM ALBUM, L. [8]; Rate 0.500 kg/ha): 0.0
